# Source: patent US6232503A, “Alkynyl aryl sulfones” (Lonza Inc., priority 1999, dated 2001)
# Experiments:
# Assay type in all cases: cell-based
# Burkholderia cepacia = test: Zone of inhibition assay, 24 hour minimum inhibitory concentration, Burkholderia cepacia; details: Day-Engley neutralizing media
# Method: (§1) The minimum inhibitory concentrations of ethynyl 4-methylbenzene sulfone, available from Aldrich Chemical Co., and the sulfones prepared in Examples 1-15 were determined against the bacteria Burkholderia cepacia and Staphylococcus aureus by the zone of inhibition assay method common in the art. Burkholderia cepacia and Staphylococcus aureus was contacted with each sulfone for 24 hours in a Day-Engley neutralizing media (Difco Manual, 10th Ed., p. 261-263 (1984). The results are shown in Table 1.
# Staphylococcus aureus = test: Zone of inhibition assay, 24 hour minimum inhibitory concentration, Staphylococcus aureus; details: Day-Engley neutralizing media
# Method: as §1
# Aspergillus niger = test: Zone of inhibition assay, 5 day minimum inhibitory concentration, Aspergillus niger; details: ATCC16404, 120 h; Aspergillus niger ATCC #16404; 5 days; Day-Engley neutralizing media
# Method: The minimum inhibitory concentrations of ethynyl 4-methylbenzene sulfone and the sulfones prepared in Examples 1-15 were determined against the fungi Aspergillus niger by the zone of inhibition assay method common in the art. A. niger ATCC #16404 was contacted with each sulfone for 5 days in a Day-Engley neutralizing media.
MIC (Burkholderia cepacia) [µg/mL],MIC (Staphylococcus aureus) [µg/mL],MIC (Aspergillus niger) [µg/mL],SMILES
300 to 1000,300 to 1000,3000 to 10000,"C#CS(=O)(=O)c1c(C)cc(C)cc1C [Ethynyl 2,4,6-Trimethylbenzene Sulfone, Ethynyl 2,4,6-trimethylbenzene sulfone]"
> 1000,10 to 30,> 10000,"C#CS(=O)(=O)c1ccc(OC)c(OC)c1 [Ethynyl 3,4-Dimethoxybenzene Sulfone, Ethynyl 3,4-dimethoxybenzene sulfone]"
300 to 1000,3 to 10,3000 to 10000,C#CS(=O)(=O)c1ccc(CC)cc1 [Ethynyl 4-Ethylbenzene Sulfone]
30 to 100,1 to 3,1000 to 3000,"C#CS(=O)(=O)c1ccc(OC)cc1 [Ethynyl 4-Methoxybenzene Sulfone, ethynyl 4-methoxybenzene sulfone]"
100 to 300,3 to 10,3000 to 10000,"C#CS(=O)(=O)c1ccc(C)cc1 [Ethynyl 4-Methylbenzene Sulfone, ethynyl 4-methylbenzene sulfone, reference compound]"
> 1000,30 to 100,> 10000,"C#CS(=O)(=O)c1ccc(C(C)(C)C)cc1 [Ethynyl 4-t-Butylbenzene Sulfone, Ethynyl 4-t-butylbenzene sulfone]"
> 1000,3 to 10,> 10000,C#CS(=O)(=O)c1ccc(OC(F)(F)F)cc1 [Ethynyl 4-trifluoromethoxybenzene sulfone]
10 to 30,1 to 3,1000 to 3000,"C#CS(=O)(=O)c1ccccc1 [Ethynyl Benzene Sulfone, Ethynyl benzene sulfone]"
300 to 1000,100 to 300,100 to 300,"Cc1cc(C)c(S(=O)(=O)C#CI)c(C)c1 [Iodoethynyl 2,4,6-trimethylbenzene sulfone]"
300 to 1000,30 to 100,300 to 1000,"COc1ccc(S(=O)(=O)C#CI)cc1OC [Iodoethynyl 3,4-Dimethoxybenzene Sulfone, Iodoethynyl 3,4-dimethoxybenzene sulfone]"
100 to 300,0.3 to 1,10 to 30,"CCc1ccc(S(=O)(=O)C#CI)cc1 [Iodoethynyl 4-Ethylbenzene Sulfone, Iodoethynyl 4-ethylbenzene sulfone]"
30 to 100,3 to 10,30 to 100,"COc1ccc(S(=O)(=O)C#CI)cc1 [Iodoethynyl 4-Methoxybenzene Sulfone, iodoethynyl 4-methoxybenzene sulfone]"
0.3 to 1,0.3 to 1,100 to 300,"Cc1ccc(S(=O)(=O)C#CI)cc1 [Iodoethynyl 4-Methylbenzene Sulfone, Iodoethynyl 4-methylbenzene sulfone]"
300 to 1000,1 to 3,100 to 300,"CC(C)(C)c1ccc(S(=O)(=O)C#CI)cc1 [Iodoethynyl 4-t-Butylbenzene Sulfone, Iodoethynyl 4-t-butylbenzene sulfone]"
100 to 300,0.3 to 1,30 to 100,O=S(=O)(C#CI)c1ccc(OC(F)(F)F)cc1 [Iodoethynyl 4-trifluoromethoxybenzene sulfone]
3 to 10,0.3 to 1,300 to 1000,"O=S(=O)(C#CI)c1ccccc1 [Iodoethynyl Benzene Sulfone, Iodoethynyl benzene sulfone]"
